Source: patent US20230301300A1, “HERBICIDAL COMPOSITIONS” (SYNGENTA CROP PROTECTION AG, priority 2020, published 2023)

How the values were obtained:
Assay type in all cases: in vivo
Hordeum vulgare (HORVW) = experiment: B2 Post-Emergence Efficacy - Test 2; settings: 15 days after application, 0-100 scale
Method: (§1) Seeds of a variety of test species (see Table B1) were sown in standard soil in pots. After cultivation for 12 days (post-emergence) under controlled conditions in a glasshouse (at 24/18° C. or 20/16° C., at day/night; 16 hours light; 65% humidity), the plants were sprayed with an aqueous spray solution derived from the formulation of the technical active ingredient dissolved in IF50 (see Table B2 for composition) and adjuvant (Genapol X080) was added to the spray solution at a rate of 0.2% v/v.
(§2) After application, the test plants were grown in a glasshouse under controlled conditions (as above) and watered twice daily. Herbicidal activity was evaluated 15 days after application on a 0-100 scale. The results, where 0=no damage to test plant and 100=total kill of test plant are shown below in Tables 8 to 11.

Eleisine indica (ELEIN) = experiment: B2 Post-Emergence Efficacy - Test 2; settings: 15 days after application, 0=no damage, 100=total kill
Method: as §1, §2

Beta vulgaris (BEAVA) = experiment: B2 Post-Emergence Efficacy - Test 2; settings: 15 days after application, 0-100 scale
Method: as §1, §2

[1] = test system: Alopecurus myosuroides (ALOMY); experiment: B2 Post-Emergence Efficacy - Test 2; settings: 15 days after application, 0-100 scale
Method: as §1, §2

[2] = test system: Amaranthus retroflexus (AMARE); experiment: B2 Post-Emergence Efficacy - Test 2; settings: 15 days after application, 0-100 scale
Method: as §1, §2

Zea mays (ZEAMX) = experiment: B2 Post-Emergence Efficacy - Test 2; settings: 15 days after application; for Herbicidal activity ZEAMX: 0-100 scale; for Herbicidal activity on a 0-100 scale, ZEAMX: 0=no damage, 100=total kill
Method: as §1, §2

[3] = test system: Abutilon theophrasti (ABUTH); experiment: B2 Post-Emergence Efficacy - Test 2; settings: 15 days after application, 0-100 scale
Method: as §1, §2

[4] = test system: Echinochloa crus galli (ECHCG); experiment: B2 Post-Emergence Efficacy - Test 2; settings: 15 days after application, 0=no damage, 100=total kill
Method: as §1, §2

Bromus tectorum (BROTE) = experiment: B2 Post-Emergence Efficacy - Test 2; settings: 15 days after application, 0-100 scale
Method: as §1, §2

Glycine max (GLXMA) = experiment: B2 Post-Emergence Efficacy - Test 2; settings: 15 days after application; for Herbicidal activity GLXMA: 0-100 scale; for Herbicidal activity on a 0-100 scale, GLXMA: 0=no damage, 100=total kill
Method: as §1, §2

Setaria faberi (SETFA) [5] = experiment: B2 Post-Emergence Efficacy - Test 2; settings: 15 days after application, 0=no damage, 100=total kill
Method: as §1, §2

[6] = test system: Echinochloa crus-galli (ECHCG); experiment: B1 Post-Emergence Efficacy - Test 1; settings: 1000 g/ha, after 13 days, five point scale
Method: (§3) Seeds of a variety of test species are sown in standard soil in pots:— Solanum nigrum (SOLNI), Amaranthus retoflexus (AMARE), Setaria faberi (SETFA), Alopecurus myosuroides (ALOMY), Echinochloa crus-galli (ECHCG), Ipomoea hederacea (IPOHE), Lolium perenne (LOLPE). After 8 days cultivation (post-emergence) under controlled conditions in a glasshouse (at 24/16° C., day/night; 14 hours light; 65% humidity), the plants are sprayed with an aqueous spray solution derived from the formulation of the technical active ingredient in acetone/water (50:50) solution containing 0.5% Tween 20 (polyoxyethylene sorbitan monolaurate, CAS RN 9005-64-5). Compounds are applied at 1000 g/ha. The test plants are then grown in a glasshouse under controlled conditions in a glasshouse (at 24/16° C., day/night; 14 hours light; 65% humidity) and watered twice daily. After 13 days, the test is evaluated for the percentage damage caused to the plant. The biological activities are assessed on a five point scale (5=80-100%; 4=60-79%; 3=40-59%; 2=20-39%; 1=0-19%). A blank value in the table is indicative that the compound was not tested on that species.

[7] = test system: Amaranthus retoflexus (AMARE); experiment: B1 Post-Emergence Efficacy - Test 1; settings: 1000 g/ha, after 13 days, five point scale
Method: as §3

Lolium perenne (LOLPE) = experiment: B1 Post-Emergence Efficacy - Test 1; settings: 1000 g/ha, after 13 days, five point scale
Method: as §3

[8] = test system: Ipomoea hederacea (IPOHE); experiment: B1 Post-Emergence Efficacy - Test 1; settings: 1000 g/ha, after 13 days, five point scale
Method: as §3

Solanum nigrum (SOLNI) = experiment: B1 Post-Emergence Efficacy - Test 1; settings: 1000 g/ha, after 13 days, five point scale
Method: as §3

Setaria faberi (SETFA) [9] = experiment: B1 Post-Emergence Efficacy - Test 1; settings: 1000 g/ha, after 13 days, five point scale
Method: as §3

Cc1nn(C)c(=O)c(-c2c(F)ccc(Cl)c2CCc2ccc(C#N)cc2)c1O [Compound 1.024, 4-[3-chloro-6-fluoro-2-[2-[4-(cyano)phenyl]ethyl]phenyl]-5-hydroxy-2,6-dimethyl-pyridazin-3-one]
5 (5=80-100%): percentage damage caused to the plant, ECHCG [6] | percentage damage caused to the plant, AMARE [7] | percentage damage caused to the plant, LOLPE (Lolium perenne (LOLPE)) | percentage damage caused to the plant, IPOHE [8] | percentage damage caused to the plant, SOLNI (Solanum nigrum (SOLNI)) | percentage damage caused to the plant, SETFA (Setaria faberi (SETFA) [9])
60: Herbicidal activity on a 0-100 scale, ELEIN (Eleisine indica (ELEIN); 125 g/Ha)
70: Herbicidal activity BEAVA (Beta vulgaris (BEAVA); 15 g/Ha) | Herbicidal activity BEAVA (Beta vulgaris (BEAVA); 30 g/Ha) | Herbicidal activity ALOMY ([1]; 125 g/Ha) | Herbicidal activity ALOMY ([1]; 250 g/Ha) | Herbicidal activity ALOMY ([1]; 500 g/Ha) | Herbicidal activity ZEAMX (Zea mays (ZEAMX); 250 g/Ha) | Herbicidal activity on a 0-100 scale, ZEAMX (Zea mays (ZEAMX); 250 g/Ha) | Herbicidal activity on a 0-100 scale, ECHCG ([4]; 15 g/Ha) | Herbicidal activity BROTE (Bromus tectorum (BROTE); 500 g/Ha) | Herbicidal activity GLXMA (Glycine max (GLXMA); 15 g/Ha) | Herbicidal activity on a 0-100 scale, GLXMA (Glycine max (GLXMA); 15 g/Ha) | Herbicidal activity on a 0-100 scale, SETFA (Setaria faberi (SETFA) [5]; 30 g/Ha)
90: Herbicidal activity AMARE ([2]; 30 g/Ha) | Herbicidal activity AMARE ([2]; 60 g/Ha) | Herbicidal activity ABUTH ([3]; 15 g/Ha) | Herbicidal activity ABUTH ([3]; 30 g/Ha) | Herbicidal activity on a 0-100 scale, ECHCG ([4]; 125 g/Ha) | Herbicidal activity on a 0-100 scale, ECHCG ([4]; 250 g/Ha) | Herbicidal activity GLXMA (Glycine max (GLXMA); 60 g/Ha) | Herbicidal activity on a 0-100 scale, GLXMA (Glycine max (GLXMA); 60 g/Ha) | Herbicidal activity GLXMA (Glycine max (GLXMA); 125 g/Ha) | Herbicidal activity on a 0-100 scale, GLXMA (Glycine max (GLXMA); 125 g/Ha) | Herbicidal activity on a 0-100 scale, SETFA (Setaria faberi (SETFA) [5]; 125 g/Ha) | Herbicidal activity on a 0-100 scale, SETFA (Setaria faberi (SETFA) [5]; 250 g/Ha)
20: Herbicidal activity HORVW (Hordeum vulgare (HORVW); 500 g/Ha) | Herbicidal activity ZEAMX (Zea mays (ZEAMX); 60 g/Ha) | Herbicidal activity on a 0-100 scale, ZEAMX (Zea mays (ZEAMX); 60 g/Ha) | Herbicidal activity BROTE (Bromus tectorum (BROTE); 125 g/Ha) | Herbicidal activity on a 0-100 scale, SETFA (Setaria faberi (SETFA) [5]; 15 g/Ha)
50: Herbicidal activity ALOMY ([1]; 60 g/Ha)
100: Herbicidal activity BEAVA (Beta vulgaris (BEAVA); 500 g/Ha) | Herbicidal activity AMARE ([2]; 125 g/Ha) | Herbicidal activity AMARE ([2]; 250 g/Ha) | Herbicidal activity AMARE ([2]; 500 g/Ha) | Herbicidal activity ZEAMX (Zea mays (ZEAMX); 500 g/Ha) | Herbicidal activity on a 0-100 scale, ZEAMX (Zea mays (ZEAMX); 500 g/Ha) | Herbicidal activity ABUTH ([3]; 60 g/Ha) | Herbicidal activity ABUTH ([3]; 125 g/Ha) | Herbicidal activity ABUTH ([3]; 250 g/Ha) | Herbicidal activity ABUTH ([3]; 500 g/Ha) | Herbicidal activity on a 0-100 scale, ECHCG ([4]; 500 g/Ha) | Herbicidal activity GLXMA (Glycine max (GLXMA); 250 g/Ha) | Herbicidal activity on a 0-100 scale, GLXMA (Glycine max (GLXMA); 250 g/Ha) | Herbicidal activity GLXMA (Glycine max (GLXMA); 500 g/Ha) | Herbicidal activity on a 0-100 scale, GLXMA (Glycine max (GLXMA); 500 g/Ha) | Herbicidal activity on a 0-100 scale, SETFA (Setaria faberi (SETFA) [5]; 500 g/Ha)
80: Herbicidal activity on a 0-100 scale, ELEIN (Eleisine indica (ELEIN); 250 g/Ha) | Herbicidal activity on a 0-100 scale, ELEIN (Eleisine indica (ELEIN); 500 g/Ha) | Herbicidal activity BEAVA (Beta vulgaris (BEAVA); 60 g/Ha) | Herbicidal activity BEAVA (Beta vulgaris (BEAVA); 125 g/Ha) | Herbicidal activity BEAVA (Beta vulgaris (BEAVA); 250 g/Ha) | Herbicidal activity AMARE ([2]; 15 g/Ha) | Herbicidal activity on a 0-100 scale, ECHCG ([4]; 30 g/Ha) | Herbicidal activity on a 0-100 scale, ECHCG ([4]; 60 g/Ha) | Herbicidal activity GLXMA (Glycine max (GLXMA); 30 g/Ha) | Herbicidal activity on a 0-100 scale, GLXMA (Glycine max (GLXMA); 30 g/Ha) | Herbicidal activity on a 0-100 scale, SETFA (Setaria faberi (SETFA) [5]; 60 g/Ha)
30: Herbicidal activity ALOMY ([1]; 30 g/Ha)
40: Herbicidal activity on a 0-100 scale, ELEIN (Eleisine indica (ELEIN); 30 g/Ha) | Herbicidal activity on a 0-100 scale, ELEIN (Eleisine indica (ELEIN); 60 g/Ha) | Herbicidal activity ZEAMX (Zea mays (ZEAMX); 125 g/Ha) | Herbicidal activity on a 0-100 scale, ZEAMX (Zea mays (ZEAMX); 125 g/Ha) | Herbicidal activity BROTE (Bromus tectorum (BROTE); 250 g/Ha)
0: Herbicidal activity HORVW (Hordeum vulgare (HORVW); 15 g/Ha) | Herbicidal activity on a 0-100 scale, ELEIN (Eleisine indica (ELEIN); 15 g/Ha) | Herbicidal activity ZEAMX (Zea mays (ZEAMX); 15 g/Ha) | Herbicidal activity on a 0-100 scale, ZEAMX (Zea mays (ZEAMX); 15 g/Ha) | Herbicidal activity BROTE (Bromus tectorum (BROTE); 15 g/Ha) | Herbicidal activity BROTE (Bromus tectorum (BROTE); 30 g/Ha)
10: Herbicidal activity HORVW (Hordeum vulgare (HORVW); 30 g/Ha) | Herbicidal activity HORVW (Hordeum vulgare (HORVW); 60 g/Ha) | Herbicidal activity HORVW (Hordeum vulgare (HORVW); 125 g/Ha) | Herbicidal activity HORVW (Hordeum vulgare (HORVW); 250 g/Ha) | Herbicidal activity ALOMY ([1]; 15 g/Ha) | Herbicidal activity ZEAMX (Zea mays (ZEAMX); 30 g/Ha) | Herbicidal activity on a 0-100 scale, ZEAMX (Zea mays (ZEAMX); 30 g/Ha) | Herbicidal activity BROTE (Bromus tectorum (BROTE); 60 g/Ha)
